# Measured values from ChEMBL document CHEMBL5584231, “Rational design of a new short anticancer peptide with good potential for cancer treatment” (Eur J Med Chem, 2024).
# Activity calls are given as the source filed them. The rule behind the calls is not given here. Non-standard residues stand in square brackets, D forms with d. Residues, ends and D or L forms follow the SMILES beside them. Dip = N[C@H](C(=O)O)C(c1ccccc1)c1ccccc1; Nle(6-COOH) = N[C@@H](CCCCC(=O)O)C(=O)O; Asu = N[C@@H](CCCCCC(=O)O)C(=O)O
# Key:
# HeLa = experiment: Cytotoxicity against human HeLa cells assessed as inhibition of cell growth incubated for 1 hr by MTT assay; type: functional, cell-based
# MCF7 = experiment: Cytotoxicity against human MCF7 cells assessed as inhibition of cell growth incubated for 1 hr by MTT assay; type: functional, cell-based; conditions: MCF7, 1 h
# [1] = Cytotoxicity against RG cells (unknown origin) assessed as inhibition of cell growth incubated for 1 hr by MTT assay; type: functional, cell-based
# A549 = experiment: Cytotoxicity against human A549 cells assessed as inhibition of cell growth incubated for 1 hr by MTT assay; type: functional, cell-based; conditions: A549, 1 h
# [2] = Cytotoxicity against HK-2 cells assessed as inhibition of cell growth incubated for 1 hr by MTT assay; type: toxicity, cell-based; conditions: human
# [3] = Therapeutic index, ratio of HC10 for mouse RBC to IC50 for cytotoxicity against human HeLa cells; type: toxicity, cell-based; conditions: mouse RBC and HeLa cells, read-out: TI
# [4] = Therapeutic index, ratio of HC10 for mouse RBC to IC50 for cytotoxicity against human MCF7 cells; type: toxicity, cell-based; conditions: mouse RBC and MCF7 cells, read-out: TI
# [5] = Therapeutic index, ratio of HC10 for mouse RBC to IC50 for cytotoxicity against RG cells (unknown origin); type: toxicity, cell-based; conditions: mouse RBC and RG cells, read-out: TI
# [6] = Therapeutic index, ratio of HC10 for mouse RBC to IC50 for cytotoxicity against human A549 cells; type: toxicity, cell-based; conditions: mouse RBC and A549 cells, read-out: TI
# [7] = Hemolytic activity in mouse RBC at 12.5 uM incubated for 1 hr by absorbance based assay relative to control; type: toxicity, cell-based, Erythrocyte; conditions: red blood cells (erythrocytes), read-out: Activity
# Cell membrane [8] = experiment: Disruption of cell membrane in human MCF7 cells assessed as LDH release at 40 uM incubated for 1 hr by fluorescence based microplate reader analysis relative to control; type: cell membranes
# Cell membrane [9] = experiment: Induction of morphological changes in cell membrane of human MCF7 cells assessed as membrane damage at 1 times IC50 incubated for 1 hr by SEM analysis; type: cell membranes
# Cell membrane [10] = experiment: Induction of morphological changes in cell membrane of human MCF7 cells assessed as cell depression at 1 times IC50 incubated for 1 hr by SEM analysis; type: cell membranes
# Cell membrane [11] = experiment: Disruption of cell membrane integrity in human MCF7 cells assessed as increase in PI fluorescence at 1 times IC50 by laser confocal scanning microscopic analysis; conditions: time 0-120 min, TDE = time-dependent effect
# Cell membrane [12] = experiment: Disruption of cell membrane integrity in human MCF7 cells assessed as increase in PI fluorescence measured after 1 hr by laser confocal scanning microscopic analysis; type: cell membranes
# Cell membrane [13] = experiment: Induction of cell membrane damage in human MCF7 cells assessed as protein leakage at 1 to 2 times IC50 measured after 0.5 to 6 hrs by UV based analysis; type: cell membranes; conditions: time 0.5-6 hrs
# Cell membrane [14] = experiment: Induction of cell membrane damage in human MCF7 cells assessed as nucleic acid leakage at 1 to 2 times IC50 measured after 0.5 to 6 hrs by UV based analysis; type: cell membranes; conditions: time 0.5-6 hrs
SMILES,IC50 (HeLa) [µM],IC50 (MCF7) [µM],IC50 [1] [µM],IC50 (A549) [µM],IC50 at 1 h [2] [µM],selectivity ratio [3],selectivity ratio [4],selectivity ratio [5],selectivity ratio [6],"hemolysis at 1 h, 12.5 µM [7] [%]",Activity (Cell membrane [8]) [%],Activity (Cell membrane [9]),Activity (Cell membrane [10]),Activity (Cell membrane [11]),Activity (Cell membrane [12]),Activity (Cell membrane [13]),Activity (Cell membrane [14])
CC(C)C[C@H](NC(=O)[C@H](CC(C)C)NC(=O)[C@H](CCCCN)NC(=O)[C@H](CCC(=O)O)NC(=O)[C@H](CC(C)C)NC(=O)[C@H](CC(C)C)NC(=O)[C@H](CCCCN)NC(=O)[C@H](CCCCN)NC(=O)[C@H](CC(C)C)NC(=O)[C@H](CC(C)C)NC(=O)[C@H](CCCCN)NC(=O)[C@H](CCCCN)NC(=O)[C@H](CC(C)C)NC(=O)[C@@H](N)CC(C)C)C(N)=O (H-LLKKLLKKLLEKLL-NH2),5.53,7.66,5.73,5.01,4.49,3.15,2.28,3.04,3.48,,,,,,,,
CC(C)C[C@H](NC(=O)[C@H](CC(C)C)NC(=O)[C@H](CCC(=O)O)NC(=O)[C@H](CCCCN)NC(=O)[C@H](CC(C)C)NC(=O)[C@H](CC(C)C)NC(=O)[C@H](CCCCN)NC(=O)[C@H](CCCCN)NC(=O)[C@H](CC(C)C)NC(=O)[C@H](CC(C)C)NC(=O)[C@H](CCCCN)NC(=O)[C@H](CCCCN)NC(=O)[C@H](CC(C)C)NC(=O)[C@@H](N)CC(C)C)C(N)=O (H-LLKKLLKKLLKELL-NH2),14.7,11.8,6.16,10.9,10.8,0.352,0.438,0.838,0.474,,,,,,,,
CC(C)C[C@H](NC(=O)[C@H](CCC(=O)O)NC(=O)[C@H](CCCCN)NC(=O)[C@H](CCCCN)NC(=O)[C@H](CC(C)C)NC(=O)[C@H](CC(C)C)NC(=O)[C@H](CCCCN)NC(=O)[C@H](CCCCN)NC(=O)[C@H](CC(C)C)NC(=O)[C@H](CC(C)C)NC(=O)[C@H](CCCCN)NC(=O)[C@H](CCCCN)NC(=O)[C@H](CC(C)C)NC(=O)[C@@H](N)CC(C)C)C(N)=O (H-LLKKLLKKLLKKEL-NH2),32.2,101,75.9,75.3,73,13.7,4.38,5.81,5.86,,,,,,,,
CC(C)C[C@H](NC(=O)[C@H](CCCCN)NC(=O)[C@H](CCCCN)NC(=O)[C@H](CC(C)C)NC(=O)[C@H](CC(C)C)NC(=O)[C@H](CCCCN)NC(=O)[C@H](CCCCN)NC(=O)[C@H](CC(C)C)NC(=O)[C@H](CC(C)C)NC(=O)[C@H](CCCCN)NC(=O)[C@H](CCCCN)NC(=O)[C@H](CC(C)C)NC(=O)[C@@H](N)CC(C)C)C(=O)N[C@@H](CC(=O)O)C(N)=O (H-LLKKLLKKLLKKLD-NH2),12.1,30.7,32.8,18.8,50.3,31.1,12.2,11.4,20,,,,,,,,
CC(C)C[C@H](NC(=O)[C@H](CCCCN)NC(=O)[C@H](CCCCN)NC(=O)[C@H](CC(C)C)NC(=O)[C@H](CC(C)C)NC(=O)[C@H](CCCCN)NC(=O)[C@H](CCCCN)NC(=O)[C@H](CC(C)C)NC(=O)[C@H](CC(C)C)NC(=O)[C@H](CCCCN)NC(=O)[C@H](CCCCN)NC(=O)[C@H](CC(C)C)NC(=O)[C@@H](N)CC(C)C)C(=O)N[C@@H](CCCCCC(=O)O)C(N)=O (H-LLKKLLKKLLKKL[Asu]-NH2),5.23,8.55,12.8,5.97,15.3,15.4,9.43,6.3,13.5,,,,,,,,
CC(C)C[C@H](NC(=O)[C@H](CCCCN)NC(=O)[C@H](CCCCN)NC(=O)[C@H](CC(C)C)NC(=O)[C@H](CC(C)C)NC(=O)[C@H](CCCCN)NC(=O)[C@H](CCCCN)NC(=O)[C@H](CC(C)C)NC(=O)[C@H](CC(C)C)NC(=O)[C@H](CCCCN)NC(=O)[C@H](CCCCN)NC(=O)[C@H](CC(C)C)NC(=O)[C@@H](N)CC(C)C)C(=O)N[C@@H](CCCCC(=O)O)C(N)=O (H-LLKKLLKKLLKKL[Nle(6-COOH)]-NH2),7.59,14,20.4,11.2,26.4,25.4,13.8,9.42,17.1,,,,,,,,
CC[C@H](C)[C@H](NC(=O)CN)C(=O)NCC(=O)N[C@@H](C)C(=O)N[C@H](C(=O)N[C@@H](CC(C)C)C(=O)N[C@@H](CCCCN)C(=O)N[C@H](C(=O)N[C@@H](CC(C)C)C(=O)N[C@H](C(=O)N[C@H](C(=O)NCC(=O)N[C@@H](CC(C)C)C(=O)N1CCC[C@H]1C(=O)N[C@@H](C)C(=O)N[C@@H](CC(C)C)C(=O)N[C@H](C(=O)N[C@@H](CO)C(=O)N[C@@H](Cc1c[nH]c2ccccc12)C(=O)N[C@H](C(=O)N[C@@H](CCCCN)C(=O)N[C@@H](CCCNC(=N)N)C(=O)N[C@@H](CCCCN)C(=O)N[C@@H](CCCNC(=N)N)C(=O)N[C@@H](CCC(N)=O)C(=O)N[C@@H](CCC(N)=O)C(N)=O)[C@@H](C)CC)[C@@H](C)CC)[C@@H](C)O)[C@@H](C)O)C(C)C)C(C)C [MELITTIN],0.934,1.79,,1.83,0.802,1.44,0.747,0.859,0.733,> 85,86.8,Active,Active,Tde,Dose-Dependent Effect,Active,Active
NCCCC[C@H](NC(=O)[C@@H](NC(=O)[C@H](Cc1c[nH]c2ccccc12)NC(=O)[C@H](CCCCN)NC(=O)[C@H](CCCCN)NC(=O)[C@H](Cc1c[nH]c2ccccc12)NC(=O)[C@H](Cc1c[nH]c2ccccc12)NC(=O)[C@H](CCCCN)NC(=O)[C@@H](N)CCCCN)C(c1ccccc1)c1ccccc1)C(N)=O [RUXOTEMITIDE] (H-KKWWKKW[Dip]K-NH2),14.7,63.5,43.2,64.1,78.4,10.6,2.45,3.6,2.43,,,,,,,,
